Measurements: patent US20180271857A1, “TREATMENT OF CANCER BY INHIBITING EZH2 ACTIVITY” (University of Copenhagen, priority 2014, published 2018)

How the values were obtained:
[1] = tested on: Ezh2 expression in Ezh2f/f; PDGFB/H3K27M NSCs; test: Immunoblot of Ezh2 after 4-OHT treatment of Ezh2f/f; PDGFB/H3K27M NSCs (FIG. 3a); format: cell-based, mouse; settings: CreER PDGFB/H3K27M NSCs, 8 days of treatment (FIG. 3a)
Method: Cells were trypsinized, washed once with 1× phosphate buffer saline (PBS) and lysed in TOPEX+ buffer (300 mM NaCl, 50 mM Tris-HCl pH7.5, 0.5% Triton X-100, 1% SDS, 1 mM DTT, Aprotinin, Leupeptin, 0.1 mM phenylmethanesulfonyl fluoride (PMSF) and 33.33 U/mL Benzonase (EMD-Novagen)). Protein concentrations in the cell lysates were measured by Bradford reagent (Bio-Rad). Cell lysates were separated by SDS-PAGE and transferred to nitrocellulose membrane. The antibodies used for the immunoblotting were antibodies specifically recognising H3K27me3 (C36B11, Cell Signaling), H3K27me2, p16^Ink4a, p53, H3K27M, actin, H3 and Ezh2.

[2] = tested on: Ezh2f/f; PDGFB/H3K27M NSCs injected into the mouse pons; test: Survival of mice injected in the pons with pre-treated Ezh2f/f; PDGFB/H3K27M NSCs (FIG. 3b); settings: 10^5 cells pre-treated with 4-OHT vs ethanol
Text: Briefly, mice were anesthetized using isoflurane (1.5 L O2/minute and 2.5% isoflurane) and placed in a stereotactic device (David Kopf instruments). […] The hole in the skull was closed with bonewax (Agnthos) and the scalp was closed using clips (Agnthos). The clips were removed after one week of injection.
PDGFB/H3K27M NSCs in mice with Ezh2^f/f; CreER (Ezh2^f/f;PDGFB/H3K27M) background were generated. In these mice Ezh2 could be conditionally deleted.

[3] = molecular target: T1, Human PRC2 complex (EZH2, EED, SUZ12, RbAp48, AEBP2) (Homo sapiens, UniProt Q15910); test: EZH2 methyltransferase activity within PRC2 complex, scintillation proximity assay (Example 2); format: biochemical; settings: determined as described in Example 2; inhibition of methyltransferase activity of EZH2 within PRC2
T1 construct: FLAG (N); made in house; host or cells: Sf9 insect cells
Method: Compounds can be evaluated for their ability to inhibit the methyltransferase activity of EZH2 within the PRC2 complex using the following assay. Human PRC2 complex is prepared by co-expressing each of the 5 member proteins (EZH2, EED, SUZ12, RbAp48, AEBP2) in Sf9 cells followed by co-purification. The proteins may be expressed as tagged versions, e.g. EZH2 may be expressed as FLAG-EZH2. The tag can be used for purification.
Enzyme activity is measured in a scintillation proximity assay (SPA) where a tritiated methyl group is transferred from 3H-SAM to a lysine residue on Histone H3 of a mononucleosome, purified from HeLa cells. Mononucleosomes are captured on SPA beads and the resulting signal is read on a ViewLux plate reader. SPA beads are e.g. available from Perkin Elmer, United States. This may be done as described in Garapaty-Rao et al, 2013 Identification of EZH2 and EZH1 small molecule inhibitors with selective impact on diffuse large B cell lymphoma cell growth. Chemistry and Biology 20, 1329-1339.
1. […]
1. Read the assay plates on the Viewlux Plate Reader utilizing the 613 nm emission filter with a 300 s read time. […]
Percent inhibition is calculated relative to the DMSO control for each compound concentration and the resulting values are fit using standard IC50 fitting parameters within the ABASE data fitting software package.

[4] = tested on: PDGFB NSCs expressing either WT or K27M mutant H3.3; test: Colony formation assay of PDGFB NSCs (FIG. 2C); format: cell-based, mouse; settings: 2000 cells plated, colonies after 9 days
[5] = tested on: Ink4a−/−/Arf−/− NSCs expressing constitutive active epidermal growth factor receptor (*EGFR); test: Cell proliferation of adult GBM model cells (FIG. 4); format: cell-based, mouse; settings: inhibitor vs DMSO
Text: Cell proliferation of DMSO or EZH2 inhibitor treated Ink4a/Arf−/−*EGFR NSCs.
A mouse model representing adult classical subtype of GBM subtypes was investigated.

[6] = tested on: PDGFB NSCs expressing either WT or K27M mutant H3.3; settings: 3 μM inhibitor vs DMSO
Text: Cells were harvested and counted using Neubauer chamber every 3-4 days.

EZH2 = settings: PDGFB NSCs, different concentrations for 3 days, FIG. 2A
[7] = tested on: Ezh2f/f; PDGFB/H3K27M NSCs injected into the mouse pons; test: Survival of mice bearing Ezh2f/f; PDGFB/H3K27M NSC tumours treated in vivo (FIG. 3c); settings: 10^4 cells injected into the pons, treatment after 3 weeks, vs oil-treated control

T1 sequence (Q15910 whole entry): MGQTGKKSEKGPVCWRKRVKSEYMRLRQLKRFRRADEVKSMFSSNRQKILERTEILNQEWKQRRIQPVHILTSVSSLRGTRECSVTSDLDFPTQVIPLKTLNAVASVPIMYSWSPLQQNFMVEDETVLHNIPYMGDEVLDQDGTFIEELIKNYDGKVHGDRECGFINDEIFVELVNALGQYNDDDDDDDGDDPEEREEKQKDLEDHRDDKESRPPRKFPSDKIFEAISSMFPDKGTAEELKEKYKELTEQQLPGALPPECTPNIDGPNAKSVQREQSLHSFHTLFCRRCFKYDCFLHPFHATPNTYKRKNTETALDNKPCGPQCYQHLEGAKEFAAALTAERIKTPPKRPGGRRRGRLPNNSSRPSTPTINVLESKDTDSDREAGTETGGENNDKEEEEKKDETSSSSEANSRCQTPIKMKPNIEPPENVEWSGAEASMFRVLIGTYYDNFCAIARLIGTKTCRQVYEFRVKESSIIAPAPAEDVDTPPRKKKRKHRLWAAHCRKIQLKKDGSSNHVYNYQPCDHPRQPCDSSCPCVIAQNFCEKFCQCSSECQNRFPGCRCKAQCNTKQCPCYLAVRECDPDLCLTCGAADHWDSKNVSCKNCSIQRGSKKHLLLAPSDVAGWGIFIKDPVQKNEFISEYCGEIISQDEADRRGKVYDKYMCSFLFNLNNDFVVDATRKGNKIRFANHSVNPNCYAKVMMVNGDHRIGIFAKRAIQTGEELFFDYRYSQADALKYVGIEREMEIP
T1 sequence (O75530 whole entry partner): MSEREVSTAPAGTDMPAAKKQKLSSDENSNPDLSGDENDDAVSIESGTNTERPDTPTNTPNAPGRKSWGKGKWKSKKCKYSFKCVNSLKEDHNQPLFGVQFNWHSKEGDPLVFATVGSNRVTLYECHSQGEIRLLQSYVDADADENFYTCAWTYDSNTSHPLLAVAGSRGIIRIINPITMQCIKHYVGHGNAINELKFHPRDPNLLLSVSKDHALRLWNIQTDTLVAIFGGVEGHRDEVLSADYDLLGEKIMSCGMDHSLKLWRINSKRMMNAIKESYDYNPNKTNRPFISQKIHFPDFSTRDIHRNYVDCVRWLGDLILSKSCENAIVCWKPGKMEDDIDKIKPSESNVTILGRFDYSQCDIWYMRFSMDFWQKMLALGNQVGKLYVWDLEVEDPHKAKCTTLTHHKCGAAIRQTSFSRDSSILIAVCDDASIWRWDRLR
T1 sequence (Q15022 whole entry partner): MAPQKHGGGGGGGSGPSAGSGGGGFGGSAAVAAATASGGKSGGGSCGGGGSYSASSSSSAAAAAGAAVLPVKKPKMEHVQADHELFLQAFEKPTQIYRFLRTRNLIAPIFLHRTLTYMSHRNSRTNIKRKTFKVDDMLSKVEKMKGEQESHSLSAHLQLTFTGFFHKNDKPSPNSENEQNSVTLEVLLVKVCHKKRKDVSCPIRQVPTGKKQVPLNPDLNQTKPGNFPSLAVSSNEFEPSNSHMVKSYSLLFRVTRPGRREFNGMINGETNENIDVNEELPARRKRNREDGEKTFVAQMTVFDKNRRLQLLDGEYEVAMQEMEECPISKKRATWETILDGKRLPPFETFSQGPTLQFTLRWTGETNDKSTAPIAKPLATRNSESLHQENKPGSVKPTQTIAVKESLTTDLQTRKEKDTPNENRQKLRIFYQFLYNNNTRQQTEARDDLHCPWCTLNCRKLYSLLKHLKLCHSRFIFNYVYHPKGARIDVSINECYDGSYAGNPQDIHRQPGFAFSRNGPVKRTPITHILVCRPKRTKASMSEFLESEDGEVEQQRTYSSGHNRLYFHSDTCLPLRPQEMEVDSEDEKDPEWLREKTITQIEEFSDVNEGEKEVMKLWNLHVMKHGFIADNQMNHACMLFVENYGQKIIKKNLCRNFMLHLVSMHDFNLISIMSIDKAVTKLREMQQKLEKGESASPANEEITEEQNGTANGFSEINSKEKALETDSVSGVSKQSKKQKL
T1 sequence (Q09028 whole entry partner): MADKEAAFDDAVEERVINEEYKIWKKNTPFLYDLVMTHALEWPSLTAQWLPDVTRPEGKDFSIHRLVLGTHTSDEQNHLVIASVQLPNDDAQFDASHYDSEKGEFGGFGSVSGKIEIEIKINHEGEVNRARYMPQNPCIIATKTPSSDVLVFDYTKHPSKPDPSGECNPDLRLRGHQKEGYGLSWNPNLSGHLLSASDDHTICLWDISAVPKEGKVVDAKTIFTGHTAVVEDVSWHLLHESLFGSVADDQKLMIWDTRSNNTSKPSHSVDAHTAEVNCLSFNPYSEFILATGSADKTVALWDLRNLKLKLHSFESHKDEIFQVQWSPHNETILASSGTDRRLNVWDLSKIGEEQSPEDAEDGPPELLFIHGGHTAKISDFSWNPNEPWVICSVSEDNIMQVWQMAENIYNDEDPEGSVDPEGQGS
T1 sequence (Q6ZN18 1-503 partner limits assumed): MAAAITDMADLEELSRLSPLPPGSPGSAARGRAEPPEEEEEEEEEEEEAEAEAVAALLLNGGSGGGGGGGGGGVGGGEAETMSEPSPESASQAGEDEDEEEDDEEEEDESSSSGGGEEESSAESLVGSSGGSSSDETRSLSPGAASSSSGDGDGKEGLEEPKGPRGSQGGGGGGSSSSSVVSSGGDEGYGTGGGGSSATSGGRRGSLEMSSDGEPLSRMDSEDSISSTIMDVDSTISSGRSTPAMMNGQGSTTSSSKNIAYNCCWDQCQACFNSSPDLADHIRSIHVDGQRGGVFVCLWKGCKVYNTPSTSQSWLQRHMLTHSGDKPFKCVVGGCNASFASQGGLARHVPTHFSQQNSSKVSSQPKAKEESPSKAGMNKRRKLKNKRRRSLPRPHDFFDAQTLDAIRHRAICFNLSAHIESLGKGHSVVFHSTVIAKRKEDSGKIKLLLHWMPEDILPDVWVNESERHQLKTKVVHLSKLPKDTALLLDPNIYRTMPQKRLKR

Compound	colonies formed [4]	proliferation [5]	proliferation [6]	other results
4-hydroxytamoxifen [4-OHT]	–	–	–	Ezh2 expression [1]: complete loss of Ezh2; survival of mice [2]: significantly longer survival
GSK343	formed fewer colonies	did not affect their proliferation	reduced proliferation	IC50 [3]: 5 nM; EZH2 inhibition (H3K27me3 and H3K27me2 levels by immunoblot) (EZH2): potent and highly selective EZH2 inhibitors
CCN(c1cc(-c2ccc(CN3CCOCC3)cc2)cc(C(=O)NCc2c(C)cc(C)[nH]c2=O)c1C)C1CCOCC1 [EPZ6438]	formed fewer colonies	did not affect their proliferation	reduced proliferation	–
CC/C(=C(\c1ccccc1)c1ccc(OCCN(C)C)cc1)c1ccccc1 [Tamoxifen, tamoxifen]	–	–	–	survival of mice [7]: significantly longer survival
